The values that follow come from patent US8598132B2, “Glycosylated indolocarbazoles, method for obtaining same and uses thereof” (Universidad de Oviedo, priority 2008, dated 2013).

This experiment relates to A549 (lung). Nature of the experiment: SRB anti-tumour (growth inhibition) assay, A549. The format is cell-based. To be noted: Homo sapiens, 48 h exposure, read-out: GI50 (concentration inhibiting 50% of cell growth). Here is the method:
The compounds generated were tested against a series of cell lines from tumours. It quantitatively determined the cell growth and the viability, using a colorimetric assay type, using the reaction with sulforhodamine B (SRB), according to the technique described by Faircloth et al. (Journal of Tissue and Culture Methods 1988, 11, 201-205).
96-well microtitre plates are inoculated with cells (5×10^3 cells per well) in aliquots of 195 μl of medium, incubating them during 18 h, in a medium without added compound, to allow the cells to adhere to the surface. Next, the compounds to be tested are added, in samples of 5 μl, at a range of concentrations of 10 to 10^−8 μg/ml, dissolved in DMSO/EtOH (0.2% in PS buffer). After 48 h exposure, the anti-tumour effect is measured using the Sulforhodamine B (SRB) technique: the cells are fixed adding 50 μl of cold […] (50%) (w/v) and it is incubated for 60 min. at 4° C. The plates are washed with deionized water and dried. 100 μl of SRB solution (0.4% w/v in 1% acetic acid) to each well and it is incubated during 10 min. at ambient temperature. The non-bound SRB is eliminated, washing with 1% acetic acid. The plates are air dried and the bound colorant is dissolved with Tris buffer. The optical densities are read in an automatic plate spectrophotometer reader at a wavelength of 490 nm.
For the compounds of formula (III), (IV), (V), (VI), (VII), (VIII), (IX) and the compounds of formula (XII), (XIII), (XIV), (XV), (XVI) and (XVIII).
Consider `C[C@@H]1O[C@@H](n2c3ccccc3c3c4c(c5c6ccccc6[nH]c5c32)C(=O)NC4=O)[C@H](O)[C@H](O)[C@H]1O` [formula (III), N^13-1′-β-L-rhamnosylarcyriaflavin], for which the GI50 was 4.18 µM. As to `C[C@@H]1O[C@@H](n2c3ccccc3c3c4c(c5c6ccccc6[nH]c5c32)C(=O)NC4=O)C[C@H](O)[C@H]1O` [formula (IV), N^13-1′-β-L-olivosylarcyriaflavin], the GI50 turned out to be 8.79 µM. Take `C[C@]12O[C@H](C[C@@H](O)[C@H]1O)n1c3ccccc3c3c4c(c5c6ccccc6n2c5c31)C(=O)NC4=O` [formula (IX), N^12-5′(S)-N^13-1′-(R)-L-digitoxosylarcyriaflavin]: the GI50 was found to be 5.51 µM. As for `C[C@@H]1O[C@@H](n2c3ccccc3c3c4c(c5c6ccccc6[nH]c5c32)C(=O)NC4=O)C[C@@H](O)[C@H]1O` [formula (V), N^13-1′-β-L-digitoxosylarcyriaflavin], the GI50 amounted to 4.41 µM. Next, `C[C@H]1O[C@@H](n2c3ccccc3c3c4c(c5c6ccccc6[nH]c5c32)C(=O)NC4=O)C[C@@H](O)[C@@H]1O` [formula (VI), N^13-1′-β-D-olivosylarcyriaflavin]: 2.21 µM; `C[C@]12O[C@H]([C@H](O)[C@H](O)[C@H]1O)n1c3ccccc3c3c4c(c5c6ccccc6n2c5c31)C(=O)NC4=O` [formula (VII), N^12-5′(S)-N^13-1′-(R)-L-rhamnosylarcyriaflavin]: 2.04 µM. Consider `C[C@]12O[C@H](C[C@H](O)[C@H]1O)n1c3ccccc3c3c4c(c5c6ccccc6n2c5c31)C(=O)NC4=O` [formula (VIII), N^12-5′(S)-N^13-1′-(R)-L-olivosylarcyriaflavin], for which the GI50 was 5.73 µM. To `C[C@@H]1O[C@@H](n2c3ccccc3c3c4c(c5c6ccccc6[nH]c5c32)CNC4=O)[C@H](O)[C@H](O)[C@H]1O` [formula (XII), N^13-1′-β-L-rhamnosyl-k252c] belongs 2.84 µM. As for `C[C@@H]1O[C@@H](n2c3ccccc3c3c4c(c5c6ccccc6[nH]c5c32)CNC4=O)C[C@H](O)[C@H]1O` [formula (XIII), N^13-1′-β-L-olivosyl-k252c], the GI50 came out at 1.56 µM.

As to `C[C@@H]1O[C@@H](n2c3ccccc3c3c4c(c5c6ccccc6[nH]c5c32)CNC4=O)C[C@@H](O)[C@H]1O` [formula (XIV), N^13-1′-β-L-digitoxosyl-k252c], the GI50 turned out to be 3.4 µM. As to `C[C@H]1O[C@@H](n2c3ccccc3c3c4c(c5c6ccccc6[nH]c5c32)CNC4=O)C[C@@H](O)[C@@H]1O` [formula (XV), N^13-1′-β-D-olivosyl-k252c], the GI50 was determined as 4.98 µM. For `C[C@]12O[C@H]([C@H](O)[C@H](O)[C@H]1O)n1c3ccccc3c3c4c(c5c6ccccc6n2c5c31)CNC4=O` [formula (XVI), N^12-5′(S)-N^13-1′-(R)-L-rhamnosyl-k252c], the GI50 was 0.61 µM.

With `C[C@]12O[C@H](C[C@H](O)[C@H]1O)n1c3ccccc3c3c4c(c5c6ccccc6n2c5c31)CNC4=O` [formula (XVII), N^12-5′(S)-N^13-1′-(R)-L-olivosyl-k252c], the GI50 amounted to 1.02 µM. Next, `C[C@]12O[C@H](C[C@@H](O)[C@H]1O)n1c3ccccc3c3c4c(c5c6ccccc6n2c5c31)CNC4=O` [formula (XVIII), N^12-5′(S)-N^13-1′-(R)-L-digitoxosyl-k252c]: 1.96 µM.
